# Source: patent publication US11441195B2, “Energetic cancer stem cells (e-CSCs): a new hyper-metabolic and proliferative tumor cell phenotype, driven by mitochondrial energy” (LUNELLA BIOTECH, INC., priority 2018, dated 2022)
# Assays:
# [1] = system: 3D tumor sphere formation; conditions: cited from earlier work
# [2] = system: M-H cells from MCF7 monolayers
# [3] = system: S-H cells (MCF7 3D-spheroids); experiment: S-H cell sub-population in MCF7 3D-spheroids after treatment (auto-fluorescence flow-cytometry); type: cell-based, human; conditions: for change in S-H cells: control to 100 nM, FIG. 8B/8C
# Procedure: FIG. 8A is a bar graph showing mammosphere formation in MCF7 cells at various concentrations of DPI, and including Ribociclib at 100 nM. […] Most importantly, e-CSCs derived from 3D-spheroids are highly oxidative and can be effectively targeted with an OXPHOS inhibitor. Non-limiting examples of other OXPHOS inhibitors that may be used in the present approach include atovaquone, irinotecan, sorafenib, niclosamide, and berberine chloride.
# Data were analyzed with FlowJo 10.1 software.
# For 3D-spheroid suspensions, after 5 days of growth under low-attachment condition, the spheres were collected from six 225 cm2 flasks pre-coated with poly-HEMA and gently centrifuged at 100 g for 5 min. After centrifugation, 1 ml of 0.025% of trypsin was added to the “sphere-pellet” and incubated them at 37° C. for 5 minutes. Using a 25-gauge needle, the sphere-suspension was passed through the syringe 4 times. […] After creating these single-cell suspensions, they were subjected to standard flow-cytometry (using the SONY SH800 Cell Sorter) to isolate the auto-fluorescent cell sub-populations, as indicated above. Examples of flow-cytometry plots are included in the figures, and the gating strategy is shown.
# MCF7 monolayers = conditions: after 130 hours of DPI treatment, FIG. 7C
# Procedure: The data represents 100,000 cells after 120 hours of DPI treatment.
# Vital mitochondrial staining: Cells were trypsinized and re-suspended into a 1×10^6 cell/ml solution in PBS. 10 nM of MitoTracker Deep-Red (Thermo Fisher Scientific) was added for 30 minutes at 37° C. before centrifugation and re-suspension in PBS Ca/Mg for FACS analysis (ATTUNE NxT) or Cell Sorting (SONY SH 800). All subsequent steps were performed in the dark. Data analysis was performed using FlowJo software.
# MCF7 cells [4] = experiment: Mammosphere formation assay (3D-spheroids); type: cell-based, human; conditions: for mammosphere formation in MCF7 cells: dose-dependent (0, 50 and 100 nM), FIG. 8A
# Procedure: Mammosphere formation assay (for generating 3D-spheroids): A single-cell suspension was prepared using enzymatic, and manual disaggregation (25 gauge needle). […] After 5 days of culture, 3D-spheres >50 μm were counted using an eye piece (“graticule”), and the percentage of cells plated which formed spheres was calculated and is referred to as percent mammosphere formation, and was normalized to one (1=100% MSF). Mammosphere formation efficiency was analyzed in both the “low” and “high” sub-populations of auto-fluorescent cells, generated from either 2D-monolayers (M-L vs. M-H) or 3D-spheroids (S-L vs. S-H). All mammosphere experiments were performed in triplicate, at least 3 times independently.
# MCF7 cells [5] = conditions: cited from earlier work
# [6] = breast cancer patients; cited from earlier work
compound,measurement,setting,value
Cc1n[nH]c(C)c1Cc1sc2c(c1C(=O)N1C[C@H](O)CO1)c(=O)n(C)c(=O)n2CC(C)C [AR-C155858],3D tumor sphere formation,[1],successfully blocked
"[Cl-].c1ccc2c(c1)[I+]c1ccccc1-2 [DPI, Diphenyleneiodonium chloride]",increase in the number of M-H cells,"[2]; 100 nM DPI, 2D-monolayer cultures, 5-day period",~7.5 fold
same,percentage of M-H cells after treatment,"[2]; 5-day period (120 hours), concentration dependent, FIG. 7B",increased
same,depletion of S-H cells in anchorage-independent single live cells,[3]; 100 nM,~60%
same,change in S-H cells,[3],decreasing
same,mitochondrial mass (MitoTracker),MCF7 monolayers,increased
same,3D-spheroid formation in MCF7 cells,MCF7 cells [4],inhibits
same,3D-mammosphere formation,MCF7 cells [4]; 100 nM,almost completely inhibited
same,mammosphere formation in MCF7 cells,MCF7 cells [4],inhibited
same,mitochondrial function,MCF7 cells [5],selectively inhibits
same,toxic side effects,MCF7 cells [5],without any toxic side effects
same,changes in cell viability or apoptosis,MCF7 cells [5]; prior studies,did not induce changes
same,metabolic phenotype shift,MCF7 cells [5]; prior studies,shifted the cells towards a more glycolytic phenotype
CN(C)C(=O)c1cc2cnc(Nc3ccc(N4CCNCC4)cn3)nc2n1C1CCCC1 [Ribociclib],propagation of S-H cells,[3]; FIGS. 8A-C,effectively inhibits
same,change in S-H cells,[3],decreasing
same,most common side-effects,[6],"neutropenia, anemia and GI-distress"
same,mammosphere formation in MCF7 cells,MCF7 cells [4],inhibited
CCCCC[C@H](CC(=O)NO)C(=O)N[C@H](C(=O)N1CCC[C@H]1CO)C(C)C [actinonin],3D tumor sphere formation,[1],successfully blocked
CC[C@H]1OC(=O)[C@H](C)[C@@H](O[C@H]2C[C@@](C)(OC)[C@@H](O)[C@H](C)O2)[C@H](C)[C@@H](O[C@@H]2O[C@H](C)C[C@H](N(C)C)[C@H]2O)[C@](C)(O)C[C@@H](C)CN(C)[C@H](C)[C@@H](O)[C@]1(C)O [azithromycin],3D tumor sphere formation,[1],successfully blocked
COc1nc2ccc(Br)cc2cc1[C@@H](c1ccccc1)[C@@](O)(CCN(C)C)c1cccc2ccccc12 [bedaquiline],3D tumor sphere formation,[1],successfully blocked
COc1ccc2cc3[n+](cc2c1OC)CCc1cc2c(cc1-3)OCO2 [berberine],3D tumor sphere formation,[1],successfully blocked
COc1ccc([C@@H]2CC(=O)c3c(O)cc(O[C@@H]4O[C@H](COC(=O)CC(C)(O)CC(=O)O)[C@@H](O)[C@H](O)[C@H]4O[C@@H]4O[C@@H](C)[C@H](O)[C@@H](O)[C@H]4O)cc3O2)cc1O (stereo partly shown) [brutieridin],3D tumor sphere formation,[1],successfully blocked
C[C@@H]1O[C@@H](O[C@@H]2[C@@H](Oc3cc(O)c4c(c3)O[C@H](c3ccc(O)cc3)CC4=O)O[C@@H](COC(=O)C[C@@](C)(O)CC(=O)O)[C@H](O)[C@H]2O)[C@@H](O)[C@H](O)[C@H]1O [melitidin],3D tumor sphere formation,[1],successfully blocked
CC[C@H]1/C=C/C=C/C[C@@H](C)[C@H](O)[C@@](C)(O)C(=O)[C@@H](C)[C@H](O)[C@@H](C)C(=O)[C@@H](C)[C@H](O)[C@@H](C)/C=C/C(=O)O[C@@H]2[C@H](C)[C@H](CC1)O[C@]1(CC[C@H](C)[C@H](C[C@@H](C)O)O1)[C@H]2C [oligomycin],3D tumor sphere formation,[1],successfully blocked
CN(C)c1cc(NC(=O)CNC(C)(C)C)c(O)c2c1C[C@H]1C[C@H]3[C@H](N(C)C)C(O)=C(C(N)=O)C(=O)[C@@]3(O)C(O)=C1C2=O [tigecycline],3D tumor sphere formation,[1],successfully blocked
